From US5429766A, “Detergent composition containing alkaline pullylanase enzyme” (Kao Corporation, priority 1990, dated 1995)

Columns and labels:
Assay type in all cases: biochemical
[1] = tested on: alkaline pullulanase A from Bacillus sp. KSM-AP 1876 (FERM BP-3049); test: Effects of chelating agents on pullulanase activity of alkaline pullulanase A; settings: substrate pullulan
Experimental: (§1) 0.1 ml of enzyme solution was added to 0.9 ml of a substrate solution consisting of a buffer solution and pullulan (final concentration in the reaction system was 0.25%), and the mixture was reacted at 40° C. for 30 minutes. After the reaction, reducing sugar was quantitatively determined by a method of the 3,5-dinitrosalicylic acid (DNS).
(§2) Specifically, 1.0 ml of DNS reagent was added to 1.0 ml of reaction mixture, and the mixture was heated at 100° C. for 5 minutes to develop color. After cooling, the mixture was diluted by adding 4.0 ml of deionized water. This solution was subjected to colorimetric quantitative analysis at a wave length of 535 nm. One unit (1U) of enzyme activity was defined as the amount of enzyme which released 1 μmol of reducing sugar (as glucose) per minute.

[2] = tested on: alkaline pullulanase B (having α-amylase activity) from Bacillus sp. KSM-AP 1378 (FERM BP-3048), pullulanase activity; test: Effects of chelating agents on pullulanase activity of alkaline pullulanase B; settings: for Effect of chelating agent on pullulanase activity: chelating agent 10 mM; for Residual activity (%), Pullulanase activity: compound 10 mM, no addition = 100
Experimental: as §1, §2
Same procedures were followed as mentioned in the section of alkaline pullulanase A.
The α-amylase activity which had been adversely affected by chelating agents can be restored by the addition of Ca^2+ ions as shown in Table 3.

[3] = tested on: alkaline pullulanase B (having α-amylase activity) from Bacillus sp. KSM-AP 1378 (FERM BP-3048), α-amylase activity; test: Effects of chelating agents on α-amylase activity of alkaline pullulanase B
Experimental: as §2, with “0.1 ml of enzyme solution was added to 0.9 ml of a substrate solution consisting of a buffer solution and soluble starch (final concentration in the reaction system was 0.25%), and the mixture was reacted at 50° C. for 15 minutes. After the reaction, reducing sugar was quantitatively determined by means of a DNS method. Specifically,” for “Specifically,”, “at” for “at a”

SMILES | Effect of chelating agent on pullulanase activity ([1]; chelating agent 10 mM) | Effect of chelating agent on pullulanase activity [2] | Residual activity (%), Pullulanase activity [2] [%] | Effect of chelating agent on α-amylase activity ([3]; chelating agent 10 mM, restored by addition of Ca2+ ions) | Residual activity (%), α-Amylase activity, when Ca2+ ions were added again ([3]; compound 10 mM, then Ca2+ ions added again (values in parentheses)) [%] | Residual activity (%), α-Amylase activity ([3]; compound 10 mM, no addition = 100) [%] | Effect of chelating agent on pullulanase activity ([1]; chelating agent 0.05% by weight)
O=C(O)CN(CCN(CC(=O)O)CC(=O)O)CC(=O)O [EDTA] | almost no adverse effects | almost no adverse effect | 77 |  |  |  | 
O=C(O)CN(CCOCCOCCN(CC(=O)O)CC(=O)O)CC(=O)O [EGTA] | almost no adverse effects | almost no adverse effect | 65 | adversely affected significantly | 91 | 18 | 
O=C(O)CC(O)(CC(=O)O)C(=O)O [citric acid] |  |  |  |  |  |  | almost no adverse effects
